Experimental data from publication PMC11855207, “Synthesis and Evaluation of Aromatic A-Ring 23-Oxavitamin D3 Analogues as Hedgehog Pathway Inhibitors” (International Journal of Molecular Sciences, 2025).
Read-outs that look alike come from different tables or passages of the source.

Columns and labels:
[1] = tested on: Hh signaling pathway (Gli1 mRNA) in C3H10T1/2 cells; test: Gli1 mRNA down-regulation (qPCR) in OHC-stimulated C3H10T1/2 cells; format: cell-based, mouse; details: for mrna remaining at 5 µM / IC50: Mus musculus; for mrna remaining at 5 µM: C3H 10T1/2, 5 μM with OHCs 5 μM; for mrna remaining at 5 µM / Gli1 mRNA (%): 24 h, relative Gli1 mRNA levels compared to OHCs (set to 100%); for IC50: C3H 10T1/2, mean ± SEM; for Gli1 mRNA (%): 5 μM with OHCs 5 μM
Description: (§1) The VD3 analogues were initially assessed for their ability to inhibit the Hh signaling pathway by evaluating the effects on endogenous Gli1 mRNA levels at a single concentration (5 μM) co-administration of oxysterols (OHCs; 20(S)-hydroxycholesterol, 22(S)-hydroxycholesterol at 5 μM each) in C3H10T1/2 cells, an Hh-dependent mouse embryonic fibroblast (MEF) cell line. […] VD3 derivatives may retain some VDR agonistic activity, thereby compromising the selectivity of these compounds as Hh inhibitors. The selectivity profile of the analogues for Hh inhibition, compared to typical VDR activation, was assessed by measuring the ability to up-regulate Cyp24a1 mRNA levels in the same cellular system and by evaluating their binding to VDR using a fluorescence polarization-based competition assay (Table 1).
(§2) Mouse embryonic fibroblast cell line (C3H10T1/2, wild-type, VDR^−/−, SuFu^−/−), mouse keratinocyte cell line (ASZ001), and human embryonic kidney cell line (HEK293T) were purchased from China Center for Type Culture Collection (CCTCC; Wuhan, Hubei, China) and cultured under standard protocols. […] Therefore, they can be used to assess the inhibitory strength of the Hh signaling and the selectivity of the VDR signaling. VDR^−/− and SuFu^−/− C3H10T1/2 cells were used to study compounds selectivity for Hh and VDR signaling. If compounds regulate Hh signaling independently of VDR, their ability to down-regulate Gli1 mRNA expression should be abolished in SuFu^−/− C3H10T1/2 cells. […] The loss of Ptch in ASZ001 cells […], so down-regulating Gli1 reflects direct Smo inhibition by the compound. Comparing results from ASZ001 and C3H10T1/2 cells highlights the compound’s inhibition of the Hh signaling pathway.
(§3) RNA isolation in C3H10T1/2 cells was performed in 24-well plates (50,000 cells plated; TRIZOL Reagent); in ASZ001, cells were done in 35 mm dishes (300,000 cells plated; TRIZOL Reagent). cDNA synthesis was performed utilizing the SweScript All-in-One RT SuperMix Kit (Servicebio, Wuhan, China) per the manufacturer’s instructions on a BioRad S1000 Thermal Cycler (Hercules, CA, USA). qPCR (Hh signaling pathway and VDR) analysis of target genes was performed on Step OnePlus (ABI) using the Taqman Gene Expression Assays: mouse ActB (Mm00607939_s1), mouse GLI1 (Mm00494645_ml), mouse PTCH1(Mm00436026_m1), and mouse CYP24A1 (Mm00487244_ml). Relative gene expression levels were computed via the ΔΔCt method. ActinB mRNA expression levels of all samples were normalized to DMSO control ActinB mRNA levels (vehicle; set at 1.00). […] The mRNA expression levels from drug-treated samples were compared to OHCs levels (Gli1, PTCH) and DMSO control (Cyp24A1).

[2] = tested on: VDR signaling (Cyp24A1 mRNA) in C3H10T1/2 cells; test: Cyp24A1 mRNA up-regulation (qPCR) in C3H10T1/2 cells; format: cell-based, mouse; details: 24 h, relative to DMSO (set to 1.0); for fold induction at 5 µM: Mus musculus, C3H 10T1/2, 5 μM with OHCs 5 μM; for Cyp24A1 mRNA (fold up-regulation): 5 μM with OHCs 5 μM
Description: as §1, §2, §3

recombinant VDR = target: T1, recombinant VDR (Homo sapiens, UniProt P11473); test: VDR binding, fluorescence polarization-based competition assay (PolarScreen VDR Competitor Assay Red); details: compounds evaluated at 100 μM
T1 construct: purchased Thermo Fisher Scientific
T1 sequence (P11473 1-427): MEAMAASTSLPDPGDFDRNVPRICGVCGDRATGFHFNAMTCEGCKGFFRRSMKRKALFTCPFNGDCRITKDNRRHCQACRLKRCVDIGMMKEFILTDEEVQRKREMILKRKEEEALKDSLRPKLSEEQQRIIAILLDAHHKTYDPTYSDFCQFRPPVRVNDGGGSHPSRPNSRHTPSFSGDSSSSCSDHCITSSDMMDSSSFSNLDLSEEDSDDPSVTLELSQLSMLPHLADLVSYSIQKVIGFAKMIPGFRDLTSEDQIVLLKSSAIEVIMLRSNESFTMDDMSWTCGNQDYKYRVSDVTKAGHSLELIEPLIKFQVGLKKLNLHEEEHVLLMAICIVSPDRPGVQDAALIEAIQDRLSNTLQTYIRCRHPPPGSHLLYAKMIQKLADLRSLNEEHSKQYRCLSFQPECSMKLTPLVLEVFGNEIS
Description: as §1
VDR binding assay was performed using a PolarScreen VDR Competitor Assay Red kit (Thermo Fisher Scientific, Carlsbad, CA, USA) per the manufacturer’s instructions. Compounds were evaluated at 100 μM in 2.5% final DMSO in triplicate. Calcitriol is utilized as a positive control for VDR binding.

[3] = tested on: primary Ptch-CKO MB cells; test: Anti-proliferation (MTS) in primary Ptch-CKO MB cells; format: cell-based; details: Mus musculus, 48 h incubation, mean ± SEM
Description: Ptch-CKO MB cells, derived from a conditional Patched knockout mouse, lack Ptch-like ASZ001 cells. Consequently, the inhibitory effect of the compound on Ptch-CKO MB cells directly reflects its suppression of the canonical Hh signaling pathway. Cell viability was assessed by MTS proliferation assay kit (Promega, Madison, WI, USA) according to the manufacturer’s protocol. Culture conditions and experimental protocols to determine GI50 values in the primary murine Ptch-CKO MB cells were as previously described.

ASZ001 cells = test: Anti-proliferation (MTS) in ASZ001 cells; format: cell-based; details: Mus musculus, 48 h incubation, mean ± SEM
[4] = tested on: Hh signaling pathway (Gli1 mRNA) in ASZ001 cells; test: Gli1 mRNA down-regulation (qPCR) in ASZ001 cells; format: cell-based; details: Mus musculus
Description: Mouse embryonic fibroblast cell line (C3H10T1/2, wild-type, VDR^−/−, SuFu^−/−), mouse keratinocyte cell line (ASZ001), and human embryonic kidney cell line (HEK293T) were purchased from China Center for Type Culture Collection (CCTCC; Wuhan, Hubei, China) and cultured under standard protocols [16]. […] The loss of Ptch in ASZ001 cells prevents Smo inhibition, so down-regulating Gli1 reflects direct Smo inhibition by the compound.
(§4) RNA isolation in C3H10T1/2 cells was performed in 24-well plates (50,000 cells plated; TRIZOL Reagent); in ASZ001, cells were done in 35 mm dishes (300,000 cells plated; TRIZOL Reagent). cDNA synthesis was performed utilizing the SweScript All-in-One RT SuperMix Kit (Servicebio, Wuhan, China) per the manufacturer’s instructions on a BioRad S1000 Thermal Cycler (Hercules, CA, USA). qPCR (Hh signaling pathway and VDR) analysis of target genes was performed on Step OnePlus (ABI) using the Taqman Gene Expression Assays [18, 29]: mouse ActB (Mm00607939_s1), mouse GLI1 (Mm00494645_ml), mouse PTCH1(Mm00436026_m1), and mouse CYP24A1 (Mm00487244_ml). Relative gene expression levels were computed via the ΔΔCt method. ActinB mRNA expression levels of all samples were normalized to DMSO control ActinB mRNA levels (vehicle; set at 1.00). […] The mRNA expression levels from drug-treated samples were compared to OHCs levels (Gli1, PTCH) and DMSO control (Cyp24A1).

[5] = tested on: VDR signaling (Cyp24A1 mRNA) in ASZ001 cells; test: Cyp24A1 mRNA expression (qPCR) in ASZ001 cells; format: cell-based; details: Mus musculus, read-out: Cyp24A1 mRNA levels relative to DMSO
Description: as §4

[6] = tested on: Hh signaling pathway (Ptch mRNA) in C3H10T1/2 cells; test: Ptch mRNA down-regulation (qPCR) in C3H10T1/2 cells; format: cell-based; details: Mus musculus
Description: as §4

[7] = ASZ001 cells, mean ± SEM, read-out: Gli1 IC50
[8] = ASZ001 cells, 5 μM, 24 h, DMSO set to 1.0
[9] = C3H 10T1/2, C3H10T1/2 cells, mean ± SEM, read-out: Ptch IC50

Row | Structure (SMILES) | mrna remaining at 5 µM [1] [%] | fold induction at 5 µM [2] | VDR Binding (recombinant VDR) [µM] | also measured
1 | CC(C)COC[C@@H](C)[C@H]1CC[C@H]2[C@@H](OC(=O)c3ccc(Cl)cc3)CCC[C@]12C [Compound 3e] | 23.5 ± 2.7 | 67.8 ± 4.8 | >100 | 
2 | C[C@H](COCC(C)(C)O)[C@H]1CC[C@H]2[C@@H](OC(=O)c3ccc(O)cc3)CCC[C@]12C [Compound 4j] | 4.6 ± 0.8 | 127 ± 20.5 | >100 | GI50 [3]: > 10 µM; GI50 (ASZ001 cells): > 20 µM
3 | CC(C)COC[C@@H](C)[C@H]1CC[C@H]2[C@@H](OC(=O)c3cccc(O)c3)CCC[C@]12C [Compound 3i] | 6.1 ± 1.1 | 13.8 ± 1.4 | >100 | IC50 [1]: 2.3 ± 0.7 µM; GI50 [3]: 8.1 ± 1.1 µM; IC50 [4, 7]: 5.2 ± 0.3 µM; fold induction at 5 µM [5, 8]: 2.3 ± 0.2; GI50 (ASZ001 cells): > 20 µM; IC50 [6, 9]: 5.6 ± 0.6 µM
4 | C[C@H](COCC(C)(C)O)[C@H]1CC[C@H]2[C@@H](OC(=O)c3ccc(Cl)cc3)CCC[C@]12C [Compound 4e] | 26.1 ± 2.1 | 105 ± 21.4 | >100 | 
5 | CC(C)COC[C@@H](C)[C@H]1CC[C@H]2[C@@H](OC(=O)c3ccc([N+](=O)[O-])cc3)CCC[C@]12C [Compound 3b] | 74.2 ± 4.1 | 24.6 ± 2.1 | >100 | 
6 | C[C@H](COCC(C)(C)O)[C@H]1CC[C@H]2[C@@H](OC(=O)c3cc([N+](=O)[O-])cc([N+](=O)[O-])c3)CCC[C@]12C [Compound 4f] | 30.7 ± 2.5 | 131 ± 19.7 | >100 | 
7 | CC(C)COC[C@@H](C)[C@H]1CC[C@H]2[C@@H](O)CCC[C@]12C [Compound 2a] | 36.8 ± 3.6 | 1.6 ± 0.3 | >100 | Gli1 mRNA (%) [1]: comparable to that of VD3; Cyp24A1 mRNA (fold up-regulation) [2]: weak
8 | CC(C)COC[C@@H](C)[C@H]1CC[C@H]2[C@@H](OC(=O)c3ccccc3)CCC[C@]12C [Compound 3a] | 56.8 ± 3.5 | 35.7 ± 2.6 | >100 | 
9 | C[C@H](COCC(C)(C)O)[C@H]1CC[C@H]2[C@@H](O)CCC[C@]12C [Compound 2b] | 42.7 ± 3.4 | 76.8 ± 6.3 | >100 | Gli1 mRNA (%) [1]: comparable to that of VD3; Cyp24A1 mRNA (fold up-regulation) [2]: weak
10 | C[C@H](COCC(C)(C)O)[C@H]1CC[C@H]2[C@@H](OC(=O)c3ccc([N+](=O)[O-])cc3)CCC[C@]12C [Compound 4b] | 54.6 ± 3.8 | 92.7 ± 15.9 | >100 | 
11 | COc1cccc(C(=O)O[C@H]2CCC[C@]3(C)[C@@H]([C@H](C)COCC(C)(C)O)CC[C@@H]23)c1 [Compound 4d] | 62.3 ± 4.8 | 86.8 ± 11.3 | >100 | 
12 | C=C1CC[C@H](O)C/C1=C/C=C1\CCC[C@]2(C)[C@@H]([C@H](C)CCCC(C)C)CC[C@@H]12 [VD3, Vitamin D3] | 32.5 ± 0.6 | 8350 ± 102 | >100 | IC50 [1]: 4.2 ± 0.4 µM; GI50 [3]: 6.4 ± 0.7 µM; IC50 ([4]; ASZ001, read-out: Gli1 IC50): 2.1 ± 0.2 µM; fold induction at 5 µM ([5]; ASZ001, 24 h): 821 ± 26.3; GI50 (ASZ001 cells): 15.6 ± 1.7 µM; IC50 ([6]; C3H 10T1/2, read-out: Ptch IC50): 3.3 ± 0.4 µM
13 | C[C@H](COCC(C)(C)O)[C@H]1CC[C@H]2[C@@H](OC(=O)c3cccc(O)c3)CCC[C@]12C [Compound 4h] | 3.8 ± 0.4 | 87.4 ± 13.7 | >100 | IC50 [1]: 2.8 ± 0.2 µM; GI50 [3]: > 10 µM; IC50 [4, 7]: 4.1 ± 0.5 µM; fold induction at 5 µM [5, 8]: 60.3 ± 6.4; GI50 (ASZ001 cells): > 20 µM; IC50 [6, 9]: 5.7 ± 0.5 µM
14 | CC(C)COC[C@@H](C)[C@H]1CC[C@H]2[C@@H](OC(=O)c3ccc(F)cc3)CCC[C@]12C [Compound 3f] | 45.4 ± 3.1 | 46.5 ± 3.4 | >100 | 
15 | COc1ccc(C(=O)O[C@H]2CCC[C@]3(C)[C@@H]([C@H](C)COCC(C)(C)O)CC[C@@H]23)cc1O [Compound 4g] | 2.5 ± 0.5 | 83.6 ± 15.6 | >100 | IC50 [1]: 2.1 ± 0.2 µM; GI50 [3]: 3.4 ± 0.5 µM; IC50 [4, 7]: 3.7 ± 0.7 µM; fold induction at 5 µM [5, 8]: 56.8 ± 5.1; GI50 (ASZ001 cells): 7.8 ± 1.1 µM; IC50 [6, 9]: 3.8 ± 0.4 µM
16 | CC(C)COC[C@@H](C)[C@H]1CC[C@H]2[C@@H](OC(=O)c3cc(N)cc(N)c3)CCC[C@]12C [Compound 3h] | 5.6 ± 0.9 | 6.7 ± 0.8 | >100 | IC50 [1]: 3.2 ± 0.3 µM; GI50 [3]: > 10 µM; IC50 [4, 7]: 4.7 ± 0.4 µM; fold induction at 5 µM [5, 8]: 5.1 ± 0.3; GI50 (ASZ001 cells): > 20 µM; IC50 [6, 9]: 7.8 ± 0.6 µM
17 | CC(C)COC[C@@H](C)[C@H]1CC[C@H]2[C@@H](OC(=O)c3cc([N+](=O)[O-])cc([N+](=O)[O-])c3)CCC[C@]12C [Compound 3g] | 32.1 ± 2.4 | 9.8 ± 1.4 | >100 | 
18 | COc1cccc(C(=O)O[C@H]2CCC[C@]3(C)[C@@H]([C@H](C)COCC(C)C)CC[C@@H]23)c1 [Compound 3d] | 102 ± 8.4 | 13.5 ± 1.1 | >100 | 
19 | COc1ccc(C(=O)O[C@H]2CCC[C@]3(C)[C@@H]([C@H](C)COCC(C)(C)O)CC[C@@H]23)cc1 [Compound 4c] | 76.5 ± 7.5 | 120 ± 18.6 | >100 | 
20 | C[C@H](COCC(C)(C)O)[C@H]1CC[C@H]2[C@@H](OC(=O)c3ccccc3)CCC[C@]12C [Compound 4a] | 43.8 ± 3.6 | 94.6 ± 12.7 | >100 | 
21 | COc1ccc(C(=O)O[C@H]2CCC[C@]3(C)[C@@H]([C@H](C)COCC(C)C)CC[C@@H]23)cc1 [Compound 3c] | 89.6 ± 4.3 | 36.7 ± 2.9 | >100 | 
